“Also recorded” adds a separate entry of the source. Ends that are not written are not given here.
Assays:
[1] = test system: dermatopontin; assay: Dermatopontin immunofluorescence labeling in normal human fibroblast cultures; format: cell-based; settings: normal human fibroblasts, peptide 10^−6 M once daily, 24 or 48 hours, vs control conditions
Method: (§1) The objective of this study is to determine the influence of the SEQ ID No. 5 peptide and of the SEQ ID No. 9 peptide on the expression of dermatopontin in fibroblasts. For this, specific immunofluorescence labelings were performed on normal human fibroblast cultures and on skin kept in culture ex vivo.
Normal human fibroblasts are cultivated for 24 or 48 hours and treated once daily with a 10^−6M solution of peptide SEQ ID No. 5 or of peptide SEQ ID No. 9. The cells are then washed and fixed with 3.7% formaldehyde for 10 minutes at ambient temperature.
(§2) The fixed cells or the sections are incubated in the presence of a specific rabbit dermatopontin polyclonal antibody (Proteintech group, Ref: 10537-1-AP), then a secondary antibody, coupled to a fluorescent marker. After mounting in an ad hoc medium, the cells are then examined with an Epi-fluorescence microscope (Nikon Eclipse E600 microscope).

[2] = test system: dermatopontin; assay: Dermatopontin immunofluorescence labeling in human skin kept in culture ex vivo; format: cell-based; settings: 10^−6 M solution applied topically, 24 or 48 hours
Method: as §1
The human skin samples are placed in culture at the air/liquid interface. A 10^−6M solution of peptide SEQ ID No. 5 or of peptide SEQ ID No. 9 is applied topically, then the samples are incubated for 24 hours or 48 hours. These skin samples are then fixed with formaldehyde then embedded in paraffin or fixed with OCT, by freezing at −20° C. Sections of 3 to 4 μm are then produced (6 μm for the cold sections). The immunolabeling of the samples embedded in paraffin is performed after unmasking specific sites. The immunolabeling of samples embedded in OCT is performed after fixation at 37° C. and with cold acetone.
as §2

[3] = test system: fibronectin; assay: Fibronectin immunofluorescence labeling in human dermal fibroblast cultures; format: cell-based; settings: human dermal fibroblasts, 10^−6 M once daily, vs control cells
Method: (§3) The objective of this study is to determine the influence of the SEQ ID No. 5 peptide on the expression of fibronectin, a protein of the extracellular matrix synthesized by the fibroblasts. For this, specific immunofluorescence labelings were performed on fibroblast cultures and on ex vivo skin cultures.
Human dermal fibroblasts in culture are treated once daily with a 10^−6 solution M of SEQ ID No. 5 peptide (the medium containing the active agent is changed every 24 hours). The cells are then washed and fixed with 3.7% formaldehyde for 10 minutes at ambient temperature.
(§4) The fixed cells or the sections are incubated in the presence of a specific rabbit fibronectin polyclonal antibody (Sigma, Ref: F-3648), then a secondary antibody, coupled with a fluorescent marker. The cells are then examined with the Epi-fluorescence microscope (Nikon Eclipse E600 microscope).

[4] = test system: collagen III; assay: Collagen III immunofluorescence labeling in ex vivo human skin sections; format: cell-based; settings: 10^−6 M applied topically, 24 or 48 hours, vs control conditions
Method: (§5) The human skin samples are placed in culture at the air/liquid interface. A 10^−6M solution of SEQ ID No. 5 peptide or SEQ ID No. 9 peptide is applied topically, then the samples are incubated for 24 hours or 48 hours. These skin samples are then fixed with formaldehyde, then embedded in paraffin or fixed with OCT by freezing at −20° C. Sections of 3 to 4 μm are then produced (6 μm for cold sections). The immunolabeling of samples embedded in paraffin is performed after unmasking specific sites. The immunolabeling of the samples embedded in OCT is performed after fixation at 37° C. and with cold acetone.
(§6) The fixed cells or sections are incubated in the presence of a specific rabbit collagen I polyclonal antibody (Rockland, Ref: 600-401-103) or a specific rabbit collagen III polyclonal antibody (Rockland, Ref: 600-401-105), then a secondary antibody coupled to a fluorescent marker. After mounting in an ad hoc medium, the cells are then examined with the Epi-fluorescence microscope (Nikon Eclipse E600 microscope).

[5] = test system: normal human keratinocytes (NHEK); assay: Ibidi in vitro healing model (gap filling), keratinocytes; format: cell-based
Excerpt: (§7) The objective of this study is to determine the regenerating effect of the SEQ ID No. 5 peptide on dermal fibroblasts and normal human keratinocytes (NHEK). To do this, the Ibidi in vitro healing model (Integrated Bio Diagnostics, Munich, Germany) was used.
(§8) This test consists of maintaining a cell-free area at the middle of a cell layer and of evaluating the time taken by the cells arranged on either side of the “scar” to migrate or proliferate and fill the gap. The self-adhesive silicone culture inserts are placed at the base of a well of a culture plate. These inserts have the special feature of being comprised of two distinct chambers separated by an impermeable membrane with a thickness of 500 μm. Each of the two chambers is seeded with cells of the same cell type and cultivated until confluency. The insert is then removed with sterile tweezers, creating an acellular area 400 μm wide between the two cell layers. The cells are then treated with a 10^−6 M or a 3×10^−6M solution of SEQ ID No. 5 peptide added to the culture medium, with renewal of the peptide every 24 hours. Phase-contrast microscopy observations (Olympus CK40 microscope X5 connected to an Olympus E-510 camera) were performed at different times (0, 6, 24, 30 and 48 hours) until the proliferation and migration process results in the filling of the gap.

[6] = test system: fibronectin; assay: Fibronectin immunofluorescence labeling in ex vivo human skin cultures; format: cell-based; settings: 10^−6 M applied topically, 24 or 48 hours
Method: as §3
The human skin samples are placed in culture at the air/liquid interface. A 10^−6 M solution SEQ ID No. 5 peptide or SEQ ID No. 9 peptide is to be applied topically, then the samples are incubated for 24 or 48 hours. These skin samples are then fixed with formaldehyde, then embedded in paraffin or fixed with OCT by freezing at −20° C. Sections of 3 to 4 μm are then produced (6 μm for cold sections). The immunolabeling of the samples embedded in paraffin is performed after unmasking specific sites. The immunolabeling of the samples embedded in OCT is performed after fixation at 37° C. and with cold acetone.
as §4

[7] = test system: NHEK; assay: Ultrastructure (transmission electron microscopy) of keratinocytes in culture; format: cell-based, human; settings: 10^−6 M, 48 hours, vs untreated control
Method: (§9) The objective of this study is to observe the subcellular structures of keratinocytes and fibroblasts treated by the SEQ ID No. 5 peptide at 10^−6 M.
(§10) NHEK or fibroblasts are cultivated in a dish or in a Transwell system, or skins cultivated ex vivo are treated with a 10^−6 M solution of SEQ ID No. 5 peptide for 48 hours (the medium is changed every 24 hours). The skin cells or samples are washed with PBS, then are fixed by Karnosky hypertonic fixation (4% paraformaldehyde, 5% glutaraldehyde in a 0.08M phosphate buffer), 1 hour at ambient temperature, then 24 hours at 4° C. The cells are detached from the substrate by scraping, centrifuged for 5 minutes at 1000 rpm at 4° C. The supernatant is removed and a 0.1 M sodium cacodylate buffer is deposited on the pellet. The cells are mixed with 2% agar then post-fixed by osmium tetroxide for 1 hour. The specimens are then dehydrated by successive passages in an alcohol series (50 to 100%). The skin cells or samples are then coated with a resin. The polymerization is performed for around 12 hours at 60° C. Semi-fine sections of 0.5 μm are performed with the ultra-microtome. The sections are deposited on a subbed slide under heat then stained with toluidine blue. The slides are then dehydrated again and mounted in a suitable medium. […]

[8] = test system: collagen III; assay: Collagen III immunofluorescence labeling in normal human fibroblast cultures; format: cell-based; settings: 10^−6 M once per day, 24 or 48 hours, vs control conditions
Method: (§11) The objective of this study is to determine the influence of the SEQ ID No. 5 peptide on the expression of molecules of the dermal extracellular matrix. For this, the expression of collagens I and III in human fibroblasts obtained from the dermis was studied.
(§12) Normal human fibroblasts are cultivated for 24 or 48 hours and treated once per day with a 10^−6M solution of SEQ ID No. 5 peptide or SEQ ID No. 9 peptide. The cells are then washed and fixed with formaldehyde at 3.7% for 10 minutes at ambient temperature.
as §6

[9] = test system: collagen I; assay: Collagen I immunofluorescence labeling in normal human fibroblast cultures; format: cell-based; settings: 10^−6 M once per day, 24 or 48 hours, vs control conditions
Method: as §11, §12, §6

[10] = test system: elastic fibers present in the dermis; assay: Elastic fiber staining (Elastika van Gieson) of ex vivo human skin irradiated by UVA; format: cell-based; settings: 10^−6 M topically 48 hours before UVA 5 J/cm^2, vs untreated irradiated controls
Method: The objective of this study is to determine the influence of the SEQ ID No. 5 peptide on the elastic fibers present in the dermis. To do this, specific staining of the elastic fibers was performed on skin samples cultivated ex vivo.
Human skin samples are placed in culture at the air/liquid interface. A 10^−6 M solution of SEQ ID No. 5 peptide is applied topically, then the samples are incubated for 48 hours before being irradiated by UVA at 5 J/cm^2. Untreated irradiated controls are produced in parallel.
These skin samples are then fixed with formaldehyde, then embedded in paraffin. Sections of 4 μm are then produced. These skin sections are successively removed from the paraffin, then rehydrated in different xylene and alcohol baths. the elastin fibers are stained using an Elastika van Gieson staining kit (VWR, Ref: 1.15974). The stained skin sections are dehydrated then mounted in the Eukitt mounting medium and observed under a microscope.

[11] = test system: dermal fibroblasts; assay: Ibidi in vitro healing model (gap filling), fibroblasts; format: cell-based, human
Excerpt: as §7, §8

[12] = test system: skins cultivated ex vivo; assay: Ultrastructure (transmission electron microscopy) of skins cultivated ex vivo; format: cell-based; settings: ex vivo skin cultures, 10^−6 M, 48 hours
Method: as §9, §10

[13] = test system: collagen I; assay: Collagen I immunofluorescence labeling in ex vivo human skin sections; format: cell-based; settings: 10^−6 M applied topically, 24 or 48 hours, vs control conditions
Method: as §5, §6

[14] = test system: fibroblasts; assay: Ultrastructure (transmission electron microscopy) of fibroblasts in culture; format: cell-based; settings: 10^−6 M, 48 hours
Method: as §9, §10

Substance: Asp-Arg-Glu-Trp-Gln-Phe-Tyr-Cys-NH2 (DREWQFYC-NH2) [SEQ ID No. 9]
- expression of dermatopontin (immunofluorescence) [1]: more intense fluorescence; also recorded: very substantially stimulate the expression of dermatopontin
- expression of dermatopontin (immunofluorescence) [2]: more intense fluorescence at the dermis

Substance: Arg-Glu-Trp-Gln-Phe-Tyr-Cys(Cys)-(NH2) [SEQ ID No. 5]
- expression of fibronectin (immunofluorescence) [3]: more intense cytoplasmic fluorescence; also recorded: very substantially stimulates the expression of fibronectin
- expression of dermatopontin (immunofluorescence) [1]: more intense fluorescence; also recorded: very substantially stimulate the expression of dermatopontin
- expression of collagen III (immunofluorescence) [4]: more intense fluorescence
- gap filling / proliferation and migration by comparison with control conditions ([5]; NHEK cultivated in the presence of the peptide): filled the gap faster; also recorded: stimulates the proliferation and migration
- time to total filling of the gap ([5]; human keratinocytes, 10^−6 M, 400 μm gap, control gap not yet filled at the same time): 30 h
- dose dependence of gap filling ([5]; keratinocytes, 3×10^−6 M compared with 10^−6 M): the gap fills faster
- densification of the area supporting the dermoepidermal junction (fibronectin immunofluorescence) [6]: stimulates the densification of the area supporting the dermoepidermal junction
- expression of dermatopontin (immunofluorescence) [2]: more intense fluorescence at the dermis
- intercellular contacts between keratinocytes (ultrastructure) ([7]; cultures in a TRANSWELL system): more cohesive
- organelles / mitochondria in keratinocytes (ultrastructure) ([7]; keratinocytes in culture): enrichment in organelles, and in particular mitochondria; also recorded: increase in the density of mitochondria
- expression of collagen III (immunofluorescence) [8]: more intense fluorescence; also recorded: increases the expression
- expression of collagen I (immunofluorescence) [9]: more intense fluorescence; also recorded: increases the expression of collagen I
- degradation of the elastic fibers after UV irradiation [10]: less degradation of the elastic fibers; also recorded: preserves the elastic fibers
- organization of the elastic fibers after UV irradiation [10]: better preservation of the organization of the elastic fibers
- gap filling / proliferation and migration by comparison with control conditions ([11]; fibroblasts cultivated in the presence of the peptide): filled the gap faster; also recorded: stimulates the proliferation and migration
- dose dependence of gap filling ([11]; fibroblasts, 3×10^−6 M compared with 10^−6 M): the gap fills faster
- time to total filling of the gap ([11]; human fibroblasts, 10^−6 M, 400 μm gap, control gap not yet filled at the same time): 48 h
- cellular contacts between the cells of the basal layer (ultrastructure) [12]: narrower cellular contacts between the cells of the basal layer; also recorded: increases the intercellular contacts of the basal keratinocytes
- expression of collagen I (immunofluorescence) [13]: more intense fluorescence
- caveolar bodies, rough endoplasmic reticulum and Golgi apparatus (ultrastructure) ([14]; vs control cells): substantially more developed
- secretion / synthesis of components of the extracellular matrix (ultrastructure) ([14]; vs untreated control cells): more intense secretion of components of the extracellular matrix; also recorded: increase in the synthesis of components of the extracellular matrix

Reference: patent US20130288978A1, “DERMATOPONTIN-ACTIVATING PEPTIDES AND COSMETIC COMPOSITIONS INCLUDING SAME” (ISP INVESTMENTS INC., priority 2010, published 2013)
